Square brackets hold non-standard residues; d marks the D form. Peptide text beside a SMILES is read from it.
Tests used:
rat whole blood = assay: PMA+ionomycin-induced IL-2 release in rat whole blood; format: cell-based; conditions: 10 μM; three activator concentrations, 4 h
Experimental: FIG. 17 Dose dependent inhibition of IL-2 release in rat whole blood stimulated with PMA+ionomycin. JNK inhibitor with SEQ ID NO: 172 was added at three different concentrations, namely 1, 3 and 10 μM 1 h before stimulation with PMA+ionomycin. Three doses of activators were added (25/500 ng/mL, 50/750 ng/mL and 50/1000 ng/mL) for 4 h. IL-2 release was assessed in supernatant.
Whole blood is collected from anesthetized rat or human healthy volunteers using a venipuncture connected to a pre-labeled vacuum tube containing sodium citrate. Tubes are gently mixed by inversion 7-8 times; and are then kept at RT until stimulation. JNK inhibitor of SEQ ID NO: 172 is prepared 6 times concentrated in PBS, and 30 μl/well of mix is added into 96-well plate. Whole blood is diluted by 1:2 in PBS and 120 μl of diluted blood is added in each well where either PBS alone or JNK inhibitor of SEQ ID NO: 172 has been previously added. Whole blood is incubated at 37° C.; 85 rpm (Stuart Orbital incubator SI500) for 60 min. Activators (LPS) are the prepared, 30 μl/well of LPS, 6 times concentrated. […] Cytokine (IL-6, IL-2, IFNγ and TNFα) were then measured using standard Elisa kits (e.g. from R&D Systems: DuoSet Elisas; or from BD Biosciences: BD Opteia Set Elisa). Results are expressed as pg/ml of supernatant of the measured cytokine. […]

JNK = JNK and c-Jun activation after Aβ42 stress in WT primary cortical neurons (immunoblot); format: cell-based, mouse
Experimental: (§1) To this end, primary mouse cortical neuron cultures were exposed to either 2 μM or 25 μM of β-amyloid 1-42 (Aβ42) for 5 hours to induce Aβ42 cell stress. Neurons were pre-treated with or without 10 μM of the specific inhibitor of JNK, XG-104 (SEQ ID No. 172). Levels of phosphorylated JNK (pJNK), total JNK (JNK), cleaved PARP and Tubulin (control) were determined. The ratio of pJNK/JNK served as a measure of JNK activity. The level of cleaved protein PARP, which is known to increase during apoptosis, served as a measure of neuronal apoptosis.
(§2) To obtain primary cortical neuronal cultures, E15.5 mice embryos were dissected in PBS (Phosphate Buffered Saline) 6% glucose, on ice. Embryos cortices were minced into small pieces and treated with PBS glucose trypsin (Sigma Aldrich, Saint-Louis, USA) for 20 min at 37° C. Dissociated cortical cells were cultured in Neurobasal media complemented with B27, Glutamax and penicillin-streptomycin (Gibco). Neurons were cultured at 37° C., 5% CO2 on pre-coated with poly-L-lysin (Sigma Aldrich) petri dishes. Neurons were cultured to maturity (7 days) before use.
(§3) To induce […] stress 2 μM of Aβ1-42 (Thermo Fisher Scientific, Mass., USA) were used during 5 h on cortical neurons. Aβ42-1 inversed peptide (Thermo Fisher Scientific) was used as negative control. AP 1-42 and Aβ42-1 were dissolved in pure water and incubated at 37° C. for 48 h before use. […]
(§4) For immunoblot analysis cells were lysed on ice in a lysis buffer containing […] NaPi pH 7.8, […] NaCl, 1% Triton, 0.5% DOC, 0.1% SDS, 10% glycerol, 0.1 μM calyculin A, 1 mM Na3VO4 and 1× of a protease inhibitor cocktail (Sigma Aldrich). Lysates were sonicated and centrifugated 10 min at 15000 g at 4° C. The supernatant protein concentration was determined with the Micro BCA protein assay kit (Thermo Scientific). Thirty micrograms of proteins were resolved on SDS-PAGE and transferred onto nitrocellulose membrane. After blocking with TBS 5% skim milk, the membranes were probed with primary antibodies to JNK full, c-Jun, PKR, eIF2α (Santa Cruz, Danvers, USA), pJNK (Millipore, Billerica, USA), phosphor eIF2a (Thermo Fisher Scientific), PARP and tubulin (Cell Signaling, Danvers, USA). IR Dyes 800 and 700 (Rockland Immunochemical Inc, Gilbertsville, USA) antibodies were used as secondary antibodies. Blots were reveled with Odyssey imaging system (LI-COR Biosciences, Lincoln, USA).

[1] = test system: primary mouse cortical neuron cultures; assay: Neuronal apoptosis after Aβ42 stress in WT primary cortical neurons (cleaved PARP, caspase 3); format: cell-based
Experimental: as §1, with “Neurons were pre-treated with or without 10 μM of the specific inhibitor of JNK, XG-104 (SEQ ID No. 172).” left out
as §2, §3, §4
For caspase 3 activity analysis culture cell supernatants containing degenerating and dead neurons, and cell medium were collected in parallel of adhesive neurons lysis. Culture cell supernatants were centrifugated 10 min at 15000 g at 4° C. Pellets were then resuspended in lysis buffer and caspase 3 activity was measured by using the Caspase 3 Assay kit reagents and protocol (Abcam, Cambridge, UK).

hJNK2 = hJNK2 (Homo sapiens, UniProt P45984); assay: hJNK2 | IC50; conditions: read-out: hJNK2 | IC50
How it was run: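 JNK inhibitors tested as fusion proteins of a JNK-inhibitory (poly)peptide and a transporter sequence; IC50 reported in the nM range with SEM and number of experiments.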

[2] = WT neurons, 10 μM, 1 h before 2 μM Aβ42, vs stressed WT neurons without peptides
[3] = WT neurons, 10 μM, vs Aβ42 treated WT neurons

Sequence of hJNK2 (P45984 whole entry, looked up, the tested form may be a part): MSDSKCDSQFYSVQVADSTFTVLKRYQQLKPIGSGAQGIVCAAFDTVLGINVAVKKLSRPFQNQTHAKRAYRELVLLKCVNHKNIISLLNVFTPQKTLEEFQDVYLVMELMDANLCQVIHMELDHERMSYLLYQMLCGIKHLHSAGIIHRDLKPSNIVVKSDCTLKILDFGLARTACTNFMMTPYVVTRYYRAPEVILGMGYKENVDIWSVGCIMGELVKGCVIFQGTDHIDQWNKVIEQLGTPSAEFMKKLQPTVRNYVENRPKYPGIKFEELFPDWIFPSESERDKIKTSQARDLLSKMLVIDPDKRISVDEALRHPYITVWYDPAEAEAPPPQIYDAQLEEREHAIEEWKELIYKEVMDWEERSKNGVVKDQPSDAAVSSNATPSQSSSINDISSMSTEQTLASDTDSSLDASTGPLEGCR

CC(C)C[C@H](NC(=O)[C@H](CC(N)=O)NC(=O)[C@H](CC(C)C)NC(=O)[C@@H](NC(=O)[C@@H](C)NC(=O)[C@@H]1CCCN1C(=O)[C@H](CCCNC(=N)N)NC(=O)[C@@H](CCCCN)NC(=O)[C@@H]1CCCN1C(=O)[C@H](CCCNC(=N)N)NC(=O)[C@@H](CCCNC(=N)N)NC(=O)[C@H](CCCNC(=N)N)NC(=O)[C@H](CCCNC(=N)N)NC(=O)[C@H](CCC(N)=O)NC(=O)[C@@H](CCCNC(=N)N)NC(=O)[C@H](CCCNC(=N)N)NC(=O)[C@H](CCCCN)NC(=O)[C@H](CCCCN)NC(=O)[C@H](N)CCCNC(=N)N)[C@@H](C)O)C(=O)N[C@H](Cc1ccccc1)C(N)=O [SEQ ID NO: 172, rKKRrQRRrRPkRPaTLNLf] (H-[dR]KKR[dR]QRR[dR]RP[dK]RP[dA]TLNL[dF]-NH2; N-terminus assumed)
PMA-iono-induced IL-2 release (rat whole blood): did efficiently reduce
decrease of JNK activity (pJNK/JNK) (JNK; 2 μM Aβ42 5 hours, 5 μM pre-treatment): 29.2%
decrease of JNK activity (pJNK/JNK) (JNK; 2 μM Aβ42 5 hours, 10 μM pre-treatment): 60%
decrease of JNK activity (pJNK/JNK) (JNK; 25 μM Aβ42 5 hours, 5 μM pre-treatment): 17.5%
decrease of JNK activity (pJNK/JNK) (JNK; 25 μM Aβ42 5 hours, 10 μM pre-treatment): 59.6%
JNK activation (JNK; WT neurons, 10 μM, 1 h before 2 μM Aβ42): −60%
c-Jun expression (JNK; [2]): −62%
c-Jun phosphorylation (JNK; [2]): −29%
decrease of PARP cleavage ([1]; 2 μM Aβ42, 5 μM pre-treatment): 46.8%
decrease of PARP cleavage ([1]; 2 μM Aβ42, 10 μM pre-treatment): 80.2%
decrease of PARP cleavage ([1]; 25 μM Aβ42, 5 μM pre-treatment): 69%
decrease of PARP cleavage ([1]; 25 μM Aβ42, 10 μM pre-treatment): 80.6%
efficiency to reduce apoptosis, 10 μM relative to 5 μM ([1]; Aβ42-induced apoptosis): 1.7
decrease of caspase 3 activity [1, 3]: 78%
decrease of cleaved PARP expression level [1, 3]: 77%
reduction of cleaved caspase 3 expression level [1, 3]: 61%
IC50 (hJNK2): 54.7 nM
